Results published in the supplement of paper PMC10307832.

Assays:
Experiment in all cases: relative viability (nuclei count vs DMSO), 5 days (fraction); higher = more cells survive
NCI-H1355 = test system: NCI-H1355
Method in brief: (§1)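 Dosing by pin tool came one day after lung cancer cell lines were seeded in 1536-well plates, using either one drug or a fixed anchor-drug dose plus five library-drug doses (not always all listed) in √10 steps. After 5 days, nuclei were counted on 4× images. Relative viability is treated-well nuclei count divided by vehicle-well nuclei count, and values are medians of duplicate plates.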

RERF-LC-KJ = test system: RERF-LC-KJ
Method in brief: as §1

SW 1573 = test system: SW 1573
Method in brief: as §1

HCC-15 = test system: HCC-15
Method in brief: as §1

COR-L23 = test system: COR-L23
Method in brief: as §1

LK-2 = test system: LK-2
Method in brief: as §1

NCI-H661 = test system: NCI-H661
Method in brief: as §1

HCC-827 = test system: HCC-827
Method in brief: as §1

ABC-1 = test system: ABC-1
Method in brief: as §1

SK-MES-1 = test system: SK-MES-1
Method in brief: as §1

NCI-H2405 = test system: NCI-H2405
Method in brief: as §1

NCI-H1651 = test system: NCI-H1651
Method in brief: as §1

NCI-H520 = test system: NCI-H520
Method in brief: as §1

H3255 = test system: H3255
Method in brief: as §1

PC-3 [JPC-3] = test system: PC-3 [JPC-3]
Method in brief: as §1

NCI-H1650 = test system: NCI-H1650
Method in brief: as §1

PC-14 = test system: PC-14
Method in brief: as §1

EKVX = test system: EKVX
Method in brief: as §1

NCI-H1437 = test system: NCI-H1437
Method in brief: as §1

NCI-H1734 = test system: NCI-H1734
Method in brief: as §1

NCI-H322M = test system: NCI-H322M
Method in brief: as §1

## COc1cc(N2CCC(C(N)=O)CC2)ccc1Nc1nc(N)c(Cl)c(Nc2ccccc2S(=O)(=O)C(C)C)n1 [HG-5-88-01] + Nc1ncn([C@H]2C[C@H](O)[C@@H](CO)O2)c(=O)n1 [Decitabine] (partner 2 µM)
NCI-H1355; first compound 0.04 µM
  relative viability: 0.337
NCI-H1355; first compound 0.1265 µM
  relative viability: 0.382
NCI-H1355; first compound 0.4 µM
  relative viability: 0.38
NCI-H1355; first compound 1.265 µM
  relative viability: 0.334
NCI-H1355; first compound 4 µM
  relative viability: 0.331
RERF-LC-KJ; first compound 0.04 µM
  relative viability: 0.736
RERF-LC-KJ; first compound 0.1265 µM
  relative viability: 0.737
RERF-LC-KJ; first compound 0.4 µM
  relative viability: 0.7
RERF-LC-KJ; first compound 1.265 µM
  relative viability: 0.781
RERF-LC-KJ; first compound 4 µM
  relative viability: 0.528
SW 1573; first compound 0.04 µM
  relative viability: 0.454
SW 1573; first compound 0.1265 µM
  relative viability: 0.593
SW 1573; first compound 0.4 µM
  relative viability: 0.423
SW 1573; first compound 1.265 µM
  relative viability: 0.428
SW 1573; first compound 4 µM
  relative viability: 0.458
HCC-15; first compound 0.04 µM
  relative viability: 0.682
HCC-15; first compound 0.1265 µM
  relative viability: 0.709
HCC-15; first compound 0.4 µM
  relative viability: 0.487
HCC-15; first compound 1.265 µM
  relative viability: 0.572
HCC-15; first compound 4 µM
  relative viability: 0.477
COR-L23; first compound 0.04 µM
  relative viability: 0.405
COR-L23; first compound 0.1265 µM
  relative viability: 0.531
COR-L23; first compound 0.4 µM
  relative viability: 0.543
COR-L23; first compound 1.265 µM
  relative viability: 0.379
COR-L23; first compound 4 µM
  relative viability: 0.391
LK-2; first compound 0.04 µM
  relative viability: 0.254
LK-2; first compound 0.1265 µM
  relative viability: 0.327
LK-2; first compound 0.4 µM
  relative viability: 0.386
LK-2; first compound 4 µM
  relative viability: 0.236
NCI-H661; first compound 0.04 µM
  relative viability: 0.54
NCI-H661; first compound 0.1265 µM
  relative viability: 0.595
NCI-H661; first compound 0.4 µM
  relative viability: 0.653
NCI-H661; first compound 1.265 µM
  relative viability: 0.515
NCI-H661; first compound 4 µM
  relative viability: 0.56
HCC-827; first compound 0.04 µM
  relative viability: 0.292
HCC-827; first compound 0.1265 µM
  relative viability: 0.304
HCC-827; first compound 0.4 µM
  relative viability: 0.354
HCC-827; first compound 1.265 µM
  relative viability: 0.19
HCC-827; first compound 4 µM
  relative viability: 0.209
ABC-1; first compound 0.04 µM
  relative viability: 0.998
ABC-1; first compound 0.1265 µM
  relative viability: 1.09
ABC-1; first compound 0.4 µM
  relative viability: 1.1
ABC-1; first compound 1.265 µM
  relative viability: 0.884
ABC-1; first compound 4 µM
  relative viability: 0.946
SK-MES-1; first compound 0.04 µM
  relative viability: 0.408
SK-MES-1; first compound 0.1265 µM
  relative viability: 0.368
SK-MES-1; first compound 0.4 µM
  relative viability: 0.407
SK-MES-1; first compound 1.265 µM
  relative viability: 0.459
SK-MES-1; first compound 4 µM
  relative viability: 0.34
NCI-H2405; first compound 0.04 µM
  relative viability: 0.67
NCI-H2405; first compound 0.1265 µM
  relative viability: 0.754
NCI-H2405; first compound 0.4 µM
  relative viability: 0.783
NCI-H2405; first compound 1.265 µM
  relative viability: 0.624
NCI-H2405; first compound 4 µM
  relative viability: 0.672
NCI-H1651; first compound 0.04 µM
  relative viability: 0.536
NCI-H1651; first compound 0.1265 µM
  relative viability: 0.635
NCI-H1651; first compound 0.4 µM
  relative viability: 0.717
NCI-H1651; first compound 1.265 µM
  relative viability: 0.581
NCI-H1651; first compound 4 µM
  relative viability: 0.714
NCI-H520; first compound 0.04 µM
  relative viability: 0.483
NCI-H520; first compound 0.1265 µM
  relative viability: 0.478
NCI-H520; first compound 0.4 µM
  relative viability: 0.584
NCI-H520; first compound 1.265 µM
  relative viability: 0.516
NCI-H520; first compound 4 µM
  relative viability: 0.538
H3255; first compound 0.04 µM
  relative viability: 0.589
H3255; first compound 0.1265 µM
  relative viability: 0.629
H3255; first compound 0.4 µM
  relative viability: 0.568
H3255; first compound 4 µM
  relative viability: 0.574
PC-3 [JPC-3]; first compound 0.04 µM
  relative viability: 0.762
PC-3 [JPC-3]; first compound 0.1265 µM
  relative viability: 0.826
PC-3 [JPC-3]; first compound 0.4 µM
  relative viability: 0.872
PC-3 [JPC-3]; first compound 1.265 µM
  relative viability: 0.546
PC-3 [JPC-3]; first compound 4 µM
  relative viability: 0.423
NCI-H1650; first compound 0.04 µM
  relative viability: 0.378
NCI-H1650; first compound 0.1265 µM
  relative viability: 0.559
NCI-H1650; first compound 0.4 µM
  relative viability: 0.527
NCI-H1650; first compound 1.265 µM
  relative viability: 0.559
NCI-H1650; first compound 4 µM
  relative viability: 0.413
PC-14; first compound 0.04 µM
  relative viability: 0.215
PC-14; first compound 0.1265 µM
  relative viability: 0.231
PC-14; first compound 0.4 µM
  relative viability: 0.235
PC-14; first compound 1.265 µM
  relative viability: 0.206
PC-14; first compound 4 µM
  relative viability: 0.0628
EKVX; first compound 0.04 µM
  relative viability: 0.392
EKVX; first compound 0.1265 µM
  relative viability: 0.332
EKVX; first compound 0.4 µM
  relative viability: 0.389
EKVX; first compound 4 µM
  relative viability: 0.345
NCI-H1437; first compound 0.04 µM
  relative viability: 0.529
NCI-H1437; first compound 0.1265 µM
  relative viability: 0.565
NCI-H1437; first compound 0.4 µM
  relative viability: 0.465
NCI-H1437; first compound 1.265 µM
  relative viability: 0.579
NCI-H1437; first compound 4 µM
  relative viability: 0.821
NCI-H1734; first compound 0.04 µM
  relative viability: 0.526
NCI-H1734; first compound 0.1265 µM
  relative viability: 0.564
NCI-H1734; first compound 0.4 µM
  relative viability: 0.511
NCI-H1734; first compound 1.265 µM
  relative viability: 0.462
NCI-H1734; first compound 4 µM
  relative viability: 0.532
NCI-H322M; first compound 0.04 µM
  relative viability: 0.693
NCI-H322M; first compound 0.1265 µM
  relative viability: 0.68
NCI-H322M; first compound 0.4 µM
  relative viability: 0.781
NCI-H322M; first compound 1.265 µM
  relative viability: 0.483
NCI-H322M; first compound 4 µM
  relative viability: 0.706
